Assay [1] concerns Wnt activity (SW480 colon carcinoma cells stably expressing the Sp5-Luc reporter gene). Put plainly: Wnt activity screening assay (Sp5-Luc reporter gene assay). To be noted: Homo sapiens; for EC50: 36 to 48 hours; for inhibition at 10 µM: read-out: percent inhibition at 10 μM (given for EC50 >10 μM), 10 μM. In kind it is cell-based, human. The gist of the method: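 EC50 values come from a variable-slope four-parameter fit of luminescence normalized to DMSO-only wells. The read-out follows 36–48 h incubation at 37 °C, 5% CO2, in DMEM containing 1% fetal bovine serum. Cells are hygromycin-selected SW480 stably expressing firefly luciferase under a Wnt-responsive Sp5 promoter (eight TCF/LEF sites).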

The target in another assay is recombinant GSK3β kinase (Homo sapiens (Human), UniProt P49841). Put plainly: GSK3β kinase assay (Ser/Thr 09 peptide Z-lyte, FRET).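 Also: FRET read-out as coumarin over fluorescein emission ratio, compounds incubated one hour at room temperature, IC50 from dose-response curve fit.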 The class given is biochemical.
recombinant GSK3β kinase, sequence (P49841 whole entry): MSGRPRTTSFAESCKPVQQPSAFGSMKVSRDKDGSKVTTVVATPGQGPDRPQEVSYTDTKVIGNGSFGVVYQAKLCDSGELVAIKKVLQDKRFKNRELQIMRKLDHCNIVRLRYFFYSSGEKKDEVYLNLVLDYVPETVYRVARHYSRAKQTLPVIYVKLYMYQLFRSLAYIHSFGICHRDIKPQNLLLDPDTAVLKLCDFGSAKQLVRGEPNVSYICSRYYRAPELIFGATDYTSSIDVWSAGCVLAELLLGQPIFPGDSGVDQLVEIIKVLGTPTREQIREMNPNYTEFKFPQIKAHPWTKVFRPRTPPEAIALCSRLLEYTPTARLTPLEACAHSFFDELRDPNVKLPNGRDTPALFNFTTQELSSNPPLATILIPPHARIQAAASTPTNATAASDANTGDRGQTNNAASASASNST
In assay [2] the test system is SW480 colon carcinoma cells. Put plainly: Cell viability assay (CellTiter-Glo). In kind it is cell-based, human. To be noted: Homo sapiens; for EC50: 96 h, four days, CellTiter-Glo; for inhibition at 10 µM: read-out: percent inhibition at 10 μM (given for EC50 >10 μM), 10 μM.
Assay [3] deals with LL29 cells (primary human fibroblasts derived from IPF patients), α-smooth muscle actin. Put plainly: Inhibition of fibrotic process: TGF-β1-treated primary human fibroblasts, αSMA staining.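 As to all read-outs here: controls were TGF-β1-stimulated wells with DMSO vehicle as the positive reference and cells given DMSO alone as the negative reference.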 The class given is cell-based. As to conditions: Homo sapiens, Fibroblast; for EC50: 96 h, TGF-β1 20 ng/mL, 4 days, % cells positive for αSMA; for inhibition at 10 µM: read-out: percent inhibition at 10 μM (given for EC50 >10 μM), TGF-β1, αSMA, 10 μM.

Assay [4] deals with secreted cytokines TNFα, IL-6 and KC-GRO in BV-2 cells (mouse microglial cells). The assay is described as follows: Secreted cytokines in lipopolysaccharide-stimulated mouse glial cell line. In kind it is cell-based. As to conditions: LPS 250 ng/mL 5 hours, table does not say which cytokine. How it is done:
Representative compounds were screened using the cell-based assay procedure for secreted cytokines in a Lipopolysaccharide-stimulated mouse glial cell line described below.
BV-2 cells (mouse microglial cells) were cultured in 1:1 DMEM medium supplemented with 10% FBS, and 1% penicillin/streptomycin.
BV-2 cells are plated at 35,000 cells/well in a volume of 100 μl for at least 4 hours before compounds are added. DMSO-resuspended compounds were first dispensed in a 96-well plate and serial diluted from 10 μM to 4.6 nM final concentration in medium. Compounds were added to cells overnight. 250 ng/mL of lipopolysaccharide (Escherichia coli O111:B4, SIGMA) was added for 5 hours. Supernatant is removed and saved for further cytokine detection. The original plates with seeded cells were tested for cytotoxicity by measure of adenosine triphosphate (ATP) release by adding CellTiter-Glo® diluted 1:4 in distilled water (G7573, Promega) and transferring lysed cells to a completely black 96-well plate to be read with the Cytation3. Supernatant was then diluted 1:2 with a diluent from V-PLEX cytokine Kit and directly tested for the secreted cytokines TNFα, IL-6 and KC-GRO using electrochemiluminescence (Meso Scale Discovery). The standard curve for each cytokine was used to convert the electrochemiluminescent signal into pg of protein per mL. The signal was used to plot, draw the curve fitting, and determine each compounds EC50 in Prism (GraphPad).

Assay [5] concerns IL-6 in human peripheral blood mononuclear cells (huPBMCs). Put plainly: IL-6 inhibition in LPS-stimulated human peripheral blood mononuclear cells (HTRF). The class given is cell-based. As to conditions: Homo sapiens, PBMC; for EC50: LPS 50 ng/mL, 22 hours, IL-6 HTRF; for inhibition at 10 µM: read-out: percent inhibition at 10 μM (given for EC50 >10 μM), LPS, IL-6, 10 μM. The gist of the method: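 Compound-treated huPBMCs (1×10e6 cells/mL, 1% FBS-RPMI) were stimulated after 2 h with LPS (50 ng/mL) for another 22 h at 37° C. An anti-IL-6 HTRF pair reported IL-6 as the 665/620 nm ratio; activity relative to DMSO, EC50 by 4-parameter Levenberg-Marquardt fitting, duplicates.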

The target in assay [6] is recombinant DYRK1A kinase (Homo sapiens (Human), UniProt Q13627). The assay is described as follows: DYRK1A kinase assay (Ser/Thr 18 peptide Z-lyte, FRET).
Assay [7] deals with pT212Tau in Dyrk1a- and MAPT-overexpressing HEK293T cells. Put plainly: Tau phosphorylation at Threonine 212 (pT212Tau) sandwich ELISA in double transfected cells. As to conditions: Homo sapiens, HEK-293T, read-out: Thr212 EC50 (μM).
The mark [8] stands for this setting: GSK3β kinase, head says EC50, method says IC50, ATP 46 μM.
Where [9] appears, read: DYRK1A kinase, head says EC50, method says IC50, ATP 30 μM.

Each structure is given as a SMILES string. Where two headings read alike, the source gives them in different places.

This is an account of results in patent US10653688B2, “6-(6-membered heteroaryl and aryl)isoquinolin-3-yl carboxamides and preparation and use thereof” (Samumed, LLC, priority 2017, dated 2020).

Turning to `O=C(CN1CCOCC1)Nc1cc2cc(-c3cncc(F)c3)ccc2cn1` [Compound 22, N-(6-(5-Fluoropyridin-3-yl)isoquinolin-3-yl)-2-morpholinoacetamide], the EC50 in assay [1] is above 10000 nM; at recombinant GSK3β kinase, 1770 nM; in assay [2], above 10000 nM; in assay [3], 2060 nM; in assay [4] it was 1320 nM; in assay [5], above 10000 nM. Further, the half-maximal effective concentration (EC50) is 70 nM in assay [6] and 0.253 µM in assay [7]. For the same molecule, the inhibition at 10 µM is 10.9% in assay [1], 17.2% in assay [2] and 22.9% in assay [5].
As to `CN1CCCC(C(=O)Nc2cc3cc(-c4cnccn4)ccc3cn2)CC1` (stereo not drawn) [Compound 80, 1-Methyl-N-(6-(pyrazin-2-yl)isoquinolin-3-yl)azepane-4-carboxamide], the EC50 was above 10000 nM in assay [1]; 1560 nM on recombinant GSK3β kinase (setting [8]); above 10000 nM in assay [2]; 9130 nM in assay [3]; above 10000 nM in assay [5]; 27 nM in assay [6] (setting [9]). Further, the EC50 in assay [7] turned out to be 1.4 µM. Further, the inhibition at 10 µM in assay [1] came out at 9.6%; in assay [2], 32%; in assay [5], 4.9%.
As to `CN1CCN(c2cc(C(=O)Nc3cc4cc(-c5cnc6[nH]ccc6n5)ccc4cn3)ccn2)CC1` [Compound 136, N-(6-(5H-Pyrrolo[2,3-b]pyrazin-2-yl)isoquinolin-3-yl)-2-(4-methylpiperazin-1-yl)isonicotinamide], the EC50 is 1730 nM in assay [1]; above 10000 nM on recombinant GSK3β kinase (setting [8]); 1240 nM in assay [2]; 933 nM in assay [3]; 9060 nM in assay [5]; 38 nM in assay [6] (setting [9]).
As to `CN1CCN(c2cc(C(=O)Nc3cc4cc(-c5cnc6cc[nH]c6n5)ccc4cn3)ccn2)CC1` [Compound 137, N-(6-(5H-Pyrrolo[2,3-b]pyrazin-3-yl)isoquinolin-3-yl)-2-(4-methylpiperazin-1-yl)isonicotinamide], the EC50 in assay [1] was above 10000 nM; on recombinant GSK3β kinase (setting [8]), above 10000 nM; in assay [2] it was 1220 nM; in assay [3], above 10000 nM; in assay [5], above 10000 nM; in assay [6] (setting [9]) it was 27 nM. Besides, the inhibition at 10 µM turned out to be 19.8% in assay [1], 34.2% in assay [3] and 3.9% in assay [5].
As to `CC(C)n1cc(C(=O)Nc2cc3cc(-c4cncc(NC5CCNCC5)n4)ccc3cn2)cn1` [Compound 138, 1-Isopropyl-N-(6-(6-(piperidin-4-ylamino)pyrazin-2-yl)isoquinolin-3-yl)-1H-pyrazole-4-carboxamide], the EC50 was 39 nM in assay [1]; above 10000 nM at recombinant GSK3β kinase (setting [8]); 71 nM in assay [2]; 78 nM in assay [3]; 2760 nM in assay [5]; 2 nM in assay [6] (setting [9]).
For `CC(C)n1cc(C(=O)Nc2cc3cc(-c4cncc(NC5CCN(C)CC5)n4)ccc3cn2)cn1` [Compound 139, 1-Isopropyl-N-(6-(6-((1-methylpiperidin-4-yl)amino)pyrazin-2-yl)isoquinolin-3-yl)-1H-pyrazole-4-carboxamide], the concentration giving a half-maximal response (EC50) was 32 nM in assay [1]; above 10000 nM on recombinant GSK3β kinase (setting [8]); 52 nM in assay [2]; 148 nM in assay [3]; 361 nM in assay [5]; 2 nM in assay [6] (setting [9]).
Regarding `O=C(Nc1cc2cc(-c3cccnc3)ccc2cn1)c1coc(C2CCNCC2)n1` [Compound 140, 2-(Piperidin-4-yl)-N-(6-(pyridin-3-yl)isoquinolin-3-yl)oxazole-4-carboxamide], the EC50 in assay [1] is above 10000 nM; on recombinant GSK3β kinase (setting [8]), above 10000 nM; in assay [2] it was 724 nM; in assay [3] it was 1680 nM; in assay [5], 3400 nM; in assay [6] (setting [9]), 1050 nM. The inhibition at 10 µM in assay [1] is 6.6%.
Regarding `O=C(Nc1cc2cc(-c3cncc(F)c3)ccc2cn1)c1coc(C2CCNCC2)n1` [Compound 141, N-(6-(5-Fluoropyridin-3-yl)isoquinolin-3-yl)-2-(piperidin-4-yl)oxazole-4-carboxamide], the EC50 in assay [1] is 4010 nM; at recombinant GSK3β kinase (setting [8]), above 10000 nM; in assay [2], 5880 nM; in assay [3], 1510 nM; in assay [5], 9000 nM; in assay [6] (setting [9]), 306 nM.
On to `CN1CCC(c2nc(C(=O)Nc3cc4cc(-c5cccnc5)ccc4cn3)co2)CC1` [Compound 142, 2-(1-Methylpiperidin-4-yl)-N-(6-(pyridin-3-yl)isoquinolin-3-yl)oxazole-4-carboxamide], for which the concentration giving a half-maximal response (EC50) in assay [1] was 3500 nM; at recombinant GSK3β kinase (setting [8]), above 10000 nM; in assay [2], above 10000 nM; in assay [3] it was above 10000 nM; in assay [5], above 10000 nM; in assay [6] (setting [9]), 689 nM. Further, the inhibition at 10 µM in assay [2] worked out at 16.9%; in assay [3], 8.8%; in assay [5] it was 7.8%.
For `CN1CCC(c2nc(C(=O)Nc3cc4cc(-c5cncc(F)c5)ccc4cn3)co2)CC1` [Compound 143, N-(6-(5-Fluoropyridin-3-yl)isoquinolin-3-yl)-2-(1-methylpiperidin-4-yl) oxazole-4-carboxamide], the EC50 in assay [1] was above 10000 nM; on recombinant GSK3β kinase (setting [8]), above 10000 nM; in assay [2] it was above 10000 nM; in assay [3] it was 2440 nM; in assay [5], above 10000 nM; in assay [6] (setting [9]), 6800 nM. The inhibition at 10 µM in assay [1] amounted to 0.8%; in assay [2], 8%; in assay [5] it was 8.2%.
In the case of `Nc1cncc(-c2ccc3cnc(NC(=O)c4coc(C5CCNCC5)n4)cc3c2)c1` [Compound 148, N-(6-(5-Aminopyridin-3-yl)isoquinolin-3-yl)-2-(piperidin-4-yl)oxazole-4-carboxamide], the EC50 was 266 nM in assay [1]; above 10000 nM at recombinant GSK3β kinase (setting [8]); 441 nM in assay [2]; 1190 nM in assay [3]; 1780 nM in assay [5]; 12 nM in assay [6] (setting [9]).
With `CC(C)N1CCC(c2nc(C(=O)Nc3cc4cc(-c5cccnc5)ccc4cn3)co2)CC1` [Compound 149, 2-(1-Isopropylpiperidin-4-yl)-N-(6-(pyridin-3-yl)isoquinolin-3-yl)oxazole-4-carboxamide], the EC50 in assay [1] was 7840 nM; on recombinant GSK3β kinase (setting [8]), above 10000 nM; in assay [2], above 10000 nM; in assay [3] it was 3400 nM; in assay [5] it was 3780 nM; in assay [6] (setting [9]), 102 nM. The inhibition at 10 µM in assay [2] is 39%.
Consider `CC(C)N1CCC(c2nc(C(=O)Nc3cc4cc(-c5cncc(F)c5)ccc4cn3)co2)CC1` [Compound 150, N-(6-(5-Fluoropyridin-3-yl)isoquinolin-3-yl)-2-(1-isopropylpiperidin-4-yl) oxazole-4-carboxamide], for which the EC50 was above 10000 nM in assay [1]; above 10000 nM at recombinant GSK3β kinase; above 10000 nM in assay [2]; above 10000 nM in assay [3]; above 10000 nM in assay [5]; 1630 nM in assay [6]. Moreover, the inhibition at 10 µM in assay [1] worked out at 15.2%; in assay [2], 10.9%; in assay [3] it was 42%; in assay [5] it was 10.7%.
